Article PMC7407272, “Induction of Lysosome Membrane Permeabilization as a Therapeutic Strategy to Target Pancreatic Cancer Stem Cells” (Cancers, 2020)

Experiments:
Pharmacokinetic study = type: in vivo; details: BALB/c mice
Description: Female BABL/c mice, 10 weeks old were used (n = 3 per time point). Compound 2 was formulated in 0.9% NaCl solution for both oral and intravenous (i.v.) injections. Plasma samples were collected following a single i.v. or oral administration of 8 mg/kg at 0.08, 0.16, 0.25, 0.5, 1, 4, 8 and 24 h. The extraction of Cpd 2 from plasma was achieved by solid phase extraction followed by high performance liquid chromatography/tandem mass spectrometry (Agilent 1100, Applied Biosystems API2000) analysis. The amount of inhibitor and the internal standard in each mouse plasma sample were quantified based on calibration curves generated using standards of known concentrations of compound. This assay method was sufficiently accurate for the quantification of Cpd 2 with a limit of detection (LOD) and a low limit of quantification (LLOQ) of 5 ng/mL. Pharmacokinetic parameters were estimated using WinNonlin Version 5.2 software (Pharsight Corp., Mountain View, CA, USA), by fitting both the experimental i.v and oral data to a bicompartimental model.

PFPK5(P.falciparum) = target: T1, PFPK5(P.falciparum) (Plasmodium falciparum, UniProt P61075); assay: KINOMEscan; type: binding; details: read-out: % Ctrl
T1 construct: purchased DiscoveRx KINOMEscan

FLT3(D835Y) = target: T2, FLT3(D835Y) (Homo sapiens, UniProt P36888, D835Y); assay: KINOMEscan; type: binding; details: read-out: % Ctrl
T2 construct: purchased DiscoveRx KINOMEscan

FLT3(ITD) = assay: KINOMEscan; type: binding, human; details: 1 µM
ACVRL1 = target: T3, ACVRL1 (Homo sapiens, UniProt P37023); assay: KINOMEscan; type: binding; details: read-out: % Ctrl
T3 construct: purchased DiscoveRx KINOMEscan
T3 sequence (P37023 22-503): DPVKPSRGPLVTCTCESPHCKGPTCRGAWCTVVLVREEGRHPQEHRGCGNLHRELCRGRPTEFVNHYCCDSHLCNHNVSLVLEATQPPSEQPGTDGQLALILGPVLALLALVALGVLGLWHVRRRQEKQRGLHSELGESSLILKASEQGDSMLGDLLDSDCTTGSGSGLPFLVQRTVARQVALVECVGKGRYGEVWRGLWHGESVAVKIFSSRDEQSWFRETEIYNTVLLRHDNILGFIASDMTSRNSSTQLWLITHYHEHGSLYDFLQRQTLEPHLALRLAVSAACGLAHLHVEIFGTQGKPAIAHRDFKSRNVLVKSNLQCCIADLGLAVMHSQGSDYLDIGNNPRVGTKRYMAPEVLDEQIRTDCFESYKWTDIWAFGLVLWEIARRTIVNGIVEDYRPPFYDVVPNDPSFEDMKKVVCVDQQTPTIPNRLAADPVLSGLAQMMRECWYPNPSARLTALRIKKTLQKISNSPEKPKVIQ

GCN2(KD2,S808G) = target: T4, GCN2(KD2,S808G) (Homo sapiens, UniProt Q9P2K8, S808G); assay: KINOMEscan; type: binding; details: read-out: % Ctrl
T4 construct: purchased DiscoveRx KINOMEscan

PIKFYVE = target: T5, PIKFYVE (Homo sapiens, UniProt Q9Y2I7); assay: KINOMEscan; type: binding; details: read-out: % Ctrl
T5 construct: purchased DiscoveRx KINOMEscan

GRK7 = target: T6, GRK7 (Homo sapiens, UniProt Q8WTQ7); assay: KINOMEscan; type: binding; details: read-out: % Ctrl
T6 construct: purchased DiscoveRx KINOMEscan
T6 sequence (Q8WTQ7 whole entry): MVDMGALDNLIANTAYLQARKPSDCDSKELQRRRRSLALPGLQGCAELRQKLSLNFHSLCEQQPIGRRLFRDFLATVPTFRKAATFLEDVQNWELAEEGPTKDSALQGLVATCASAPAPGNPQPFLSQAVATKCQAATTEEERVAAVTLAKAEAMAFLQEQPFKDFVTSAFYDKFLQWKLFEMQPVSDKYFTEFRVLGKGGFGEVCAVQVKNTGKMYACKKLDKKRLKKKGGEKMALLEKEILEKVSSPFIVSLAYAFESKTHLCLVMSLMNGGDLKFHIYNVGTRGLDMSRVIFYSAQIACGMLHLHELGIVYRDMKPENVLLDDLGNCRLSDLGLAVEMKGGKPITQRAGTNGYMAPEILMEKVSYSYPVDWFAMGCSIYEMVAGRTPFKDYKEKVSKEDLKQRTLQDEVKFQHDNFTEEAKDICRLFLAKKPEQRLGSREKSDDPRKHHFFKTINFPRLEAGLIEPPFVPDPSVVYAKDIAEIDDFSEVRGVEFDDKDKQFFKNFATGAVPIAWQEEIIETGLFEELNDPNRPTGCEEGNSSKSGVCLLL

AURKB = target: T7, AURKB (Homo sapiens, UniProt Q96GD4); assay: KINOMEscan; type: binding; details: read-out: % Ctrl
T7 construct: purchased DiscoveRx KINOMEscan

AURKC = target: T8, AURKC (Homo sapiens, UniProt Q9UQB9); assay: KINOMEscan; type: binding; details: read-out: % Ctrl
T8 construct: purchased DiscoveRx KINOMEscan

PLK1 = target: T9, PLK1 (Homo sapiens, UniProt P53350); assay: KINOMEscan; type: binding; details: read-out: % Ctrl
T9 construct: purchased DiscoveRx KINOMEscan

IKK-alpha = target: T10, IKK-alpha (Homo sapiens, UniProt O15111); assay: KINOMEscan; type: binding; details: read-out: % Ctrl
T10 construct: purchased DiscoveRx KINOMEscan
T10 sequence (O15111 whole entry): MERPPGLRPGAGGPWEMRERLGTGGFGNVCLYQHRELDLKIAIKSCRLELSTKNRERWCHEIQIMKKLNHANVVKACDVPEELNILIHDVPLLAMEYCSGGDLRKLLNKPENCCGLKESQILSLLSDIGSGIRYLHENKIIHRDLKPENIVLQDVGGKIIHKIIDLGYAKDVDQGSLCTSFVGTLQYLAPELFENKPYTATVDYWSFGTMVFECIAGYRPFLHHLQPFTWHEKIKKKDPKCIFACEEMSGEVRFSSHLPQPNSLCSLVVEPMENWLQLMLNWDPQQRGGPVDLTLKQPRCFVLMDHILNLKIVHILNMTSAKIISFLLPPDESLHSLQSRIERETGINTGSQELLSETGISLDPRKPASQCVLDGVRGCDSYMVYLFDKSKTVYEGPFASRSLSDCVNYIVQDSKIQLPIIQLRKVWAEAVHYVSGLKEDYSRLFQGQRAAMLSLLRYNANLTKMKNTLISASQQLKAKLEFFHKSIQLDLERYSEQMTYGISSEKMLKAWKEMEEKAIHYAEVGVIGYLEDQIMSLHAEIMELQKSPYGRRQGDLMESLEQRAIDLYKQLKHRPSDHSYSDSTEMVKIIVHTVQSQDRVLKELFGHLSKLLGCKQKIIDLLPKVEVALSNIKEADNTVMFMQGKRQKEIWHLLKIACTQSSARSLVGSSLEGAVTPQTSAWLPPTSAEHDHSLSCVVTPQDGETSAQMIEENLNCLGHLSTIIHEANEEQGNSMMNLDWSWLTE

BRAF = target: T11, BRAF (Homo sapiens, UniProt P15056); assay: KINOMEscan; type: binding; details: read-out: % Ctrl
T11 construct: purchased DiscoveRx KINOMEscan

JAK1(JH2D.-pseudoK.) = target: T12, JAK1(JH2D.-pseudoK.) (Homo sapiens, UniProt P23458); assay: KINOMEscan; type: binding; details: read-out: % Ctrl
T12 construct: JAK1(JH2D.-pseudoK.); purchased DiscoveRx KINOMEscan

KIT = target: T13, KIT (Homo sapiens, UniProt P10721); assay: KINOMEscan; type: binding; details: read-out: % Ctrl
T13 construct: purchased DiscoveRx KINOMEscan

PYK2 = target: T14, PYK2 (Homo sapiens, UniProt Q14289); assay: KINOMEscan; type: binding; details: read-out: % Ctrl
T14 construct: purchased DiscoveRx KINOMEscan
T14 sequence (Q14289 whole entry): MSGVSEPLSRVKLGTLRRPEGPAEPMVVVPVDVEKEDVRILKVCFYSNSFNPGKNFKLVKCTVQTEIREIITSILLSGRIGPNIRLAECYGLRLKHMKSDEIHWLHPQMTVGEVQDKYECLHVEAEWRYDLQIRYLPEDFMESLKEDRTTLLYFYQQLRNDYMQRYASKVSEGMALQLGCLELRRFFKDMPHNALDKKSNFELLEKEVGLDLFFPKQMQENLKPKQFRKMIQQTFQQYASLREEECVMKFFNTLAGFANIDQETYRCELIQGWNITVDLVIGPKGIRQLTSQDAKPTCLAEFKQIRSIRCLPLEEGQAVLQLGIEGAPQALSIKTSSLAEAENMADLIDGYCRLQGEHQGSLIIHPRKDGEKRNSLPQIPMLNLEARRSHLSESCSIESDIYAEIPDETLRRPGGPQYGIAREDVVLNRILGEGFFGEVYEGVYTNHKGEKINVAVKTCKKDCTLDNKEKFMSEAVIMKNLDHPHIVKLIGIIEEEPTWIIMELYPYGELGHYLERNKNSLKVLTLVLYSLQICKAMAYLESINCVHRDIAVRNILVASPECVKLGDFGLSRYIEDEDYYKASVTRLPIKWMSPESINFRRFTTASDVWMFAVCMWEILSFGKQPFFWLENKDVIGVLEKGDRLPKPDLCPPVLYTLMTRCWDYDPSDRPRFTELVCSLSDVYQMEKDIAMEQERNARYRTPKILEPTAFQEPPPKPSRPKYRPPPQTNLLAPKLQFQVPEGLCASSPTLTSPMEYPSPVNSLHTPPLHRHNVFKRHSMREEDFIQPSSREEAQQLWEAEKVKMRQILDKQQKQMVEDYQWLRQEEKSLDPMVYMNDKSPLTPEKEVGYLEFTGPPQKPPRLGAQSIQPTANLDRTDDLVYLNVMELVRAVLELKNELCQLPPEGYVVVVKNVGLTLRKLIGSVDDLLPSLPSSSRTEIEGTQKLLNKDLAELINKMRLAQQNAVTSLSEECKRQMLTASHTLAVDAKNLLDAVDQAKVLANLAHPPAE

RIOK1 = target: T15, RIOK1 (Homo sapiens, UniProt Q9BRS2); assay: KINOMEscan; type: binding; details: read-out: % Ctrl
T15 construct: purchased DiscoveRx KINOMEscan

CDC2L2 = target: T16, CDC2L2 (Homo sapiens, UniProt Q9UQ88); assay: KINOMEscan; type: binding; details: read-out: % Ctrl
T16 construct: purchased DiscoveRx KINOMEscan

RIOK3 = target: T17, RIOK3 (Homo sapiens, UniProt O14730); assay: KINOMEscan; type: binding; details: read-out: % Ctrl
T17 construct: purchased DiscoveRx KINOMEscan

RIPK2 = target: T18, RIPK2 (Homo sapiens, UniProt O43353); assay: KINOMEscan; type: binding; details: read-out: % Ctrl
T18 construct: purchased DiscoveRx KINOMEscan

LZK = target: T19, LZK (Homo sapiens, UniProt O43283); assay: KINOMEscan; type: binding; details: read-out: % Ctrl
T19 construct: purchased DiscoveRx KINOMEscan

MAP3K3 = target: T20, MAP3K3 (Homo sapiens, UniProt Q99759); assay: KINOMEscan; type: binding; details: read-out: % Ctrl
T20 construct: purchased DiscoveRx KINOMEscan

SGK = target: T21, SGK (Homo sapiens, UniProt O00141); assay: KINOMEscan; type: binding; details: read-out: % Ctrl
T21 construct: purchased DiscoveRx KINOMEscan

SgK110 = target: T22, SgK110 (Homo sapiens, UniProt P0C264); assay: KINOMEscan; type: binding; details: read-out: % Ctrl
T22 construct: purchased DiscoveRx KINOMEscan

CSNK1D = target: T23, CSNK1D (Homo sapiens, UniProt P48730); assay: KINOMEscan; type: binding; details: read-out: % Ctrl
T23 construct: purchased DiscoveRx KINOMEscan
T23 sequence (P48730 whole entry): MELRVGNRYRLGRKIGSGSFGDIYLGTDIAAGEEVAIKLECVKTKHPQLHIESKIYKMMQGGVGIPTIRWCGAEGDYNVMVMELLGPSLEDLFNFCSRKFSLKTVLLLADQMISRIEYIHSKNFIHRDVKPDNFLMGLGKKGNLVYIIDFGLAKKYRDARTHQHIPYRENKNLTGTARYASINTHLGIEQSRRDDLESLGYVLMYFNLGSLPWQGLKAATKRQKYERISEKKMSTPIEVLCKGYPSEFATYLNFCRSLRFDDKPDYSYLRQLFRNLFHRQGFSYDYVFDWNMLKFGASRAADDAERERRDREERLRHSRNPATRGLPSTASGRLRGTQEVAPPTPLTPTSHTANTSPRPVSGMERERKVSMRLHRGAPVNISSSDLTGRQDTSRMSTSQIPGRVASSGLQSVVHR

DDR2 = target: T24, DDR2 (Homo sapiens, UniProt Q16832); assay: KINOMEscan; type: binding; details: read-out: % Ctrl
T24 construct: purchased DiscoveRx KINOMEscan

MRCKA = target: T25, MRCKA (Homo sapiens, UniProt Q5VT25); assay: KINOMEscan; type: binding; details: read-out: % Ctrl
T25 construct: purchased DiscoveRx KINOMEscan

TLK2 = target: T26, TLK2 (Homo sapiens, UniProt Q86UE8); assay: KINOMEscan; type: binding; details: read-out: % Ctrl
T26 construct: purchased DiscoveRx KINOMEscan

MYLK2 = target: T27, MYLK2 (Homo sapiens, UniProt Q9H1R3); assay: KINOMEscan; type: binding; details: read-out: % Ctrl
T27 construct: purchased DiscoveRx KINOMEscan

EGFR(L858R) = target: T28, EGFR(L858R) (Homo sapiens, UniProt P00533, L858R); assay: KINOMEscan; type: binding; details: read-out: % Ctrl
T28 construct: purchased DiscoveRx KINOMEscan

EGFR(L858R,T790M) = target: T29, EGFR(L858R,T790M) (Homo sapiens, UniProt P00533, L858R/T790M); assay: KINOMEscan; type: binding; details: read-out: % Ctrl
T29 construct: purchased DiscoveRx KINOMEscan

NEK10 = target: T30, NEK10 (Homo sapiens, UniProt Q6ZWH5); assay: KINOMEscan; type: binding; details: read-out: % Ctrl
T30 construct: purchased DiscoveRx KINOMEscan
T30 sequence (Q6ZWH5 whole entry): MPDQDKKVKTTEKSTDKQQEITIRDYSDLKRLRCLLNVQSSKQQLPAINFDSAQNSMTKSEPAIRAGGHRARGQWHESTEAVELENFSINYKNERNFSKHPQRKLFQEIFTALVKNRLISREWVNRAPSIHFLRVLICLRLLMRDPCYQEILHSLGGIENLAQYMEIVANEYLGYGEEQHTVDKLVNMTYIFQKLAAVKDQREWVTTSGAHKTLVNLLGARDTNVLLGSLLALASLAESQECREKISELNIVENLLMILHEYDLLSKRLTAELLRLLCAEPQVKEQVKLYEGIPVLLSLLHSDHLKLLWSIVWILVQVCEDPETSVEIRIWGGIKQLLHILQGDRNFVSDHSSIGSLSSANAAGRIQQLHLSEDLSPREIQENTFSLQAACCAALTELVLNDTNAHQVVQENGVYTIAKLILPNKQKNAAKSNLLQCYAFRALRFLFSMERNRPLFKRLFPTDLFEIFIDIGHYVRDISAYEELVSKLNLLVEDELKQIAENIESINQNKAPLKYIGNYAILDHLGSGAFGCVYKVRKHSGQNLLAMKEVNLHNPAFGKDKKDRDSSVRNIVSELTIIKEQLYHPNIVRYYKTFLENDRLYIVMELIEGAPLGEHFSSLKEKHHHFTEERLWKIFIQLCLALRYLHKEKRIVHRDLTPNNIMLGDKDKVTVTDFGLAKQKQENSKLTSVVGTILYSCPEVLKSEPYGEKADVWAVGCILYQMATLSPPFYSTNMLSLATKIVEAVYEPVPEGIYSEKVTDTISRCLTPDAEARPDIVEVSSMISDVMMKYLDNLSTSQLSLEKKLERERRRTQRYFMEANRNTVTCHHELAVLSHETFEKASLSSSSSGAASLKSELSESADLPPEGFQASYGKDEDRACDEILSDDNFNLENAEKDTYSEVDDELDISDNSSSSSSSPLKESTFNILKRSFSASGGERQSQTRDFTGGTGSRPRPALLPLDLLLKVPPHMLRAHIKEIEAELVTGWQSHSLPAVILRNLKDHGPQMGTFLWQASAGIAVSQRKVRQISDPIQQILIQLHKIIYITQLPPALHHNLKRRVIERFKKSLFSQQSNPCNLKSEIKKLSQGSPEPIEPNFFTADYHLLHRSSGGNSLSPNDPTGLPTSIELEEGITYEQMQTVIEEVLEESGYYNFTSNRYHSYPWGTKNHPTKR

NEK11 = target: T31, NEK11 (Homo sapiens, UniProt Q8NG66); assay: KINOMEscan; type: binding; details: read-out: % Ctrl
T31 construct: purchased DiscoveRx KINOMEscan

NEK2 = target: T32, NEK2 (Homo sapiens, UniProt P51955); assay: KINOMEscan; type: binding; details: read-out: % Ctrl
T32 construct: purchased DiscoveRx KINOMEscan

NIM1 = target: T33, NIM1 (Homo sapiens, UniProt Q8IY84); assay: KINOMEscan; type: binding; details: read-out: % Ctrl
T33 construct: purchased DiscoveRx KINOMEscan
T33 sequence (Q8IY84 whole entry): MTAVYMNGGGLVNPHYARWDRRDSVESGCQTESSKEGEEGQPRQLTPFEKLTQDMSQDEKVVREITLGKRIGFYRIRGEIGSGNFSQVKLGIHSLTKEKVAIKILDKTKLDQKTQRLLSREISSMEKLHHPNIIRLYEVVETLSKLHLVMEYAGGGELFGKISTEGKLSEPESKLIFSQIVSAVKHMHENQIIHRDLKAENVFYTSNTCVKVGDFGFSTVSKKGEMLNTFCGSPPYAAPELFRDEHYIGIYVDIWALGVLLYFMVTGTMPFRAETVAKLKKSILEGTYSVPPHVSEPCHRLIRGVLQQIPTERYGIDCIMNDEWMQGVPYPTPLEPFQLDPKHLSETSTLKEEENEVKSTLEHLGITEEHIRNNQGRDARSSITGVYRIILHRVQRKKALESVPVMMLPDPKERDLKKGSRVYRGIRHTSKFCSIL

ERBB4 = target: T34, ERBB4 (Homo sapiens, UniProt Q15303); assay: KINOMEscan; type: binding; details: read-out: % Ctrl
T34 construct: purchased DiscoveRx KINOMEscan

YANK1 = target: T35, YANK1 (Homo sapiens, UniProt Q8WU08); assay: KINOMEscan; type: binding; details: read-out: % Ctrl
T35 construct: purchased DiscoveRx KINOMEscan

PAK4 = target: T36, PAK4 (Homo sapiens, UniProt O96013); assay: KINOMEscan; type: binding; details: read-out: % Ctrl
T36 construct: purchased DiscoveRx KINOMEscan

With `CN1CCC(CNc2ccc3ncc(C(=O)Nc4cccc(OC(F)(F)F)c4)n3n2)CC1` [Cpd 2] the levels in plasma (Pharmacokinetic study; after intravenous administration) was “low levels in plasma”, the clearance (Pharmacokinetic study; intravenous administration) was greater than 100 % hepatic blood flow and the remaining binding at 1 µM (PFPK5(P.falciparum)) was 97%. For the same molecule, the remaining binding at 1 µM (FLT3(D835Y)) was 65%, the “% Ctrl” value (FLT3(ITD)) was 100% and the remaining binding at 1 µM (ACVRL1) was 100%. The remaining binding at 1 µM (GCN2(KD2,S808G)) was 73%, the remaining binding at 1 µM (PIKFYVE) was 45% and the remaining binding at 1 µM (GRK7) was 41%. It also gave a remaining binding at 1 µM (AURKB) of 97%, a remaining binding at 1 µM (AURKC) of 95% and a remaining binding at 1 µM (PLK1) of 98%. For the same molecule, the remaining binding at 1 µM (IKK-alpha) was 97%, the remaining binding at 1 µM (BRAF) was 100% and the remaining binding at 1 µM (JAK1(JH2D.-pseudoK.)) was 100%. For the same molecule, the remaining binding at 1 µM (KIT) was 99%, the remaining binding at 1 µM (PYK2) was 95% and the remaining binding at 1 µM (RIOK1) was 76%. For the same molecule, the remaining binding at 1 µM (CDC2L2) was 99%, the remaining binding at 1 µM (RIOK3) was 78% and the remaining binding at 1 µM (RIPK2) was 100%. For the same molecule, the remaining binding at 1 µM (LZK) was 92%, the remaining binding at 1 µM (MAP3K3) was 96% and the remaining binding at 1 µM (SGK) was 85%. It also gave a remaining binding at 1 µM (SgK110) of 72%, a remaining binding at 1 µM (CSNK1D) of 100% and a remaining binding at 1 µM (DDR2) of 89%. For the same molecule, the remaining binding at 1 µM (MRCKA) was 100%, the remaining binding at 1 µM (TLK2) was 100% and the remaining binding at 1 µM (MYLK2) was 97%. For the same molecule, the remaining binding at 1 µM (EGFR(L858R)) was 94%, the remaining binding at 1 µM (EGFR(L858R,T790M)) was 100% and the remaining binding at 1 µM (NEK10) was 85%. It also gave a remaining binding at 1 µM (NEK11) of 79%, a remaining binding at 1 µM (NEK2) of 94% and a remaining binding at 1 µM (NIM1) of 78%. For the same molecule, the remaining binding at 1 µM (ERBB4) was 100%, the remaining binding at 1 µM (YANK1) was 100% and the remaining binding at 1 µM (PAK4) was 100%.
